Columns and labels:
Bacillus subtilis = test: Soil competition (soil bacteria-enrichment) assay, qPCR with strain-specific probes; type: cell-based; settings: 1 g non-sterile agriculture soil, 300 μL exudates, 20 mM target carbon substrate, four species pooled, 72 hours, qPCR (FIG. 23)
Experimental: (§1) In some embodiments, the competition assay comprises adding one or more bacteria of interest to non-sterile agriculture soil at an equal starting OD and incubating the soil with plant root exudate and a desired concentration of candidate soil-bacteria enriching agent. In some embodiments, the non-sterile agriculture soil further comprises one or more plants. Methods of obtaining plant root exudate are known in the art. All such methods are suitable for use in the methods disclosed herein. For example, in some embodiments, plant root exudate is obtained by surface sterilizing Arabidopsis thaliana seeds, sowing the seeds on an agar plate and growing the seeds for 7 days. In some embodiments, after 7 days, the seedlings are transferred to a multi-well plate for exudate collection. In some embodiments, exudate collection comprises adding MS media to each well of the multi-well well plate along with about 50, 7-day old, Arabidopsis seedlings. The seedlings are then incubated with shaking in growth chamber for about 24 hours. After 24 hours, the exudates are collected, pooled, and filter sterilized. In some embodiments, the treated non-sterile agriculture soil is incubated with plant root exudate and a desired concentration of soil bacteria-enriching agent for about 3 days. After 3 days, DNA is extracted from soil and the concentration of the bacteria in the soil is measured. For example, in some embodiments, qPCR analysis is conducted using a universal bacteria primer “ALL” and species-specific primers. The threshold cycle (Ct) value for the universal primer is then subtracted from each of the species-specific primers to get the dCt or ΔCt.
(§2) The ability of the identified compounds to effectively manipulate the soil microbial community was examined using a series of soil bacteria-enrichment experiments. First, the ability of the candidate selective carbon substrates to influence microbial competition was tested using a series of soil competition experiments. 1 g of non-sterile agriculture soil was added to a 2 mL tube along with 300 μL of exudates, 20 mM target carbon substrates and an OD 3.33 of all four species pooled at an equal starting concentration. Tubes were collected after 72 hours and stored in −80° C. before processing. DNA was then extracted and screened using qPCR with probes unique to each strain to determine the abundance of each strain in the mixed community.

Pseudomonas putida [1] = test: as above; type: cell-based; settings: 1 g non-sterile agriculture soil, 300 μL exudates, 20 mM target carbon substrate, four species pooled, 72 hours, qPCR (FIG. 24)
Experimental: as §1, §2

Azospirillum brasilense = test: as above; type: cell-based; settings: 1 g non-sterile agriculture soil, 300 μL exudates, 20 mM target carbon substrate, four species pooled, 72 hours, qPCR (FIG. 21)
Experimental: as §1, §2

Pseudomonas putida [2] = test: Persistence of P. putida bioinoculant in non-sterile soil over time (qPCR, ΔCt); type: cell-based; settings: initial density 10^5 cfu/g soil, exudate solution +/- 20 mM PEA, 28° C., sampled every 3 days, qPCR ΔCt (FIG. 25-26)
Experimental: FIG. 25-26 are graphs showing persistence of a P. putida bioinoculant over time. […] Lower ΔCt indicates higher abundance. P. putida was introduced into non-sterile soil at an initial density of 10^5 cfu/g soil in exudate solution +/−20 mM phenylethylamine (PEA) at day 0 and allowed to incubate at 28° C. Two replicates are shown for each condition. Every 3 days, soil was collected, and DNA was extracted to probe the concentration of P. putida using 16S primers. Template DNA for qPCR was normalized to ˜1 ng/reaction.

P. putida KT2440 (PP) = test: Enrichment of bioinoculant in soil in the presence of plants (bulk soil and root qPCR); type: in vivo, Pseudomonas putida; Arabidopsis thaliana seedlings; settings: agriculture soil in magenta box, +/- 20 mM phenylethylamine, 10^5 cells per gram of soil, four Arabidopsis seedlings, 1 or 2 weeks
Text: Some embodiments herein are directed to a method of assessing whether a given soil bacteria-enriching agent enriches a specific species of bacteria in a soil microbiome comprising at least one additional bacterial species when one or more plants are being supported by the soil. In some embodiments, the method comprises adding a known concentration of one or more species of bacteria to soil along with a soil bacteria-enriching agent. In some embodiments, the bacteria comprise Pseudomonas putida (PP), Azotobacter vinelandii (AV), Bacillus subtilis (BS), and/or Azospirillum brasilense (AB). In some embodiments, soil moisture at the start of the experiment is adjusted a desired level for growth of the plant. One or more plants are then planted in the treated soil and allowed to grow for about 1, 2, 3, 4, 5, 6, 7, 8, 9, 10, 11, 12, 13, 14, 15, 16, 17, 18, 19, 20, 21, 22, 23, 24, 25, 26, 27, 28, 29, 30, or 31 days or more, or for an amount of time that is in a range that is defined by any two of the preceding values. […] The quantity of one or more species of bacteria in the soil and/or the plant roots is then determined and one or more soil bacteria-enriching agents that uniquely promote the growth and attraction of a desired bacterial species as compared to one or more other bacteria in the soil microbiome are identified. […]

Compound	enrichment of Bacillus subtilis in agricultural soils with a native microbiome (Bacillus subtilis)	enrichment of Pseudomonas putida in agricultural soils with native microbiome (Pseudomonas putida [1])	also measured
COC1OC(CO)C(O)C(O)C1O [α-methyl d-galactoside, a-Methyl-D-Galactoside]	can be used to enrich Bacillus subtilis	–	–
CCCCCCCCCC(=O)O [capric acid, Capric acid]	–	can be used to enrich Pseudomonas putida	–
OC[C@H]1O[C@@H](Oc2ccc(O)cc2)[C@H](O)[C@@H](O)[C@@H]1O [arbutin, Arbutin]	can be used to enrich Bacillus subtilis	–	–
CCC(=O)[O-].[Na+] [sodium propionate]	–	–	enrichment of Azospirillum brasilense in agricultural soils with a native microbiome (Azospirillum brasilense): can be used to enrich Azospirillum brasilense
NCCc1ccccc1 [phenylethylamine, Phenylethylamine]	–	can be used to enrich Pseudomonas putida	persistence of Pseudomonas putida in agricultural soil (Pseudomonas putida [2]): persists longer; enrichment of PP in the bulk soil (P. putida KT2440 (PP); qPCR (FIG. 27)): enriched; enrichment of PP on plant root (root colonization) (P. putida KT2440 (PP); root DNA qPCR (FIG. 28)): enriched

— patent US20250187998A1, “IDENTIFICATION OF SOIL BACTERIA-ENRICHING AGENTS AND METHODS OF USE THEREOF” (California Institute of Technology, priority 2023, published 2025)
